Reference: patent US10087188B2, “Benzamide imidazopyrazine Btk inhibitors” (MERCK SHARP & DOHME CORP., priority 2014, dated 2018)
pIC50: −log10 of the molar value.

Key:
HeLa cells = test: [3H] Adenosine uptake assay; assay type: cell-based; settings: Homo sapiens, HeLa, accumulation of tritiated adenosine into HeLa cells; compound concentration range 10 μM to 0.032 nM; read-out: ADU inhibition IC50 (adenosine uptake inhibition potency)
Method: Compounds are also screen in an adenosine uptake functional cellular assay using the protocol described below:
[^3H] Adenosine Uptake Assay Methods
Adenosine uptake activity was determined by monitoring the accumulation of tritiated adenosine into HeLa cells (ATCC catalog #CCL-2) using a PMT-based radiometric detection instrument. […] These cells were incubated overnight at 37° C. in a humidified atmosphere with 5% (v/v) CO2. After this time the growth medium was removed and replaced with 40 μL assay medium comprising: Hanks balanced salts solution (HBSS; Thermo Fisher Catalog #SH30268.01)+5% (v/v) FBS. Compound stock solutions in DMSO were diluted in assay medium to 2.5× final compound concentration maintaining a constant DMSO concentration of 0.25% (v/v). 40 μL of compound in assay medium was dispensed into individual wells of the Cytostar-T plates and the plates were incubated for 30 minutes under ambient laboratory conditions. Following this incubation, 20 μL of 500 nM[^3H] adenosine (American Radiolabeled Chemicals Inc. Catalog #ART0287) in assay medium was added and incubated for a further 60 minutes under ambient laboratory conditions. The amount of radiolabel accumulation was then determined using a Perkin Elmer Topcount NXT microplate reader. In brief, HeLa cells adhere to the bottom of the Cytostar-T plate, uptake of [^3H]adenosine into these cells brings the radiolabel into sufficient proximity to excite the scintillant in the base of the plates. These events are captured by single PMT, time-resolved coincidence counting. IC50 values were determined by 4 parameter robust fit of counts per second values vs. (Log10) compound concentrations.

[1] = target: BTK enzyme (recombinant full-length BTK, hBTK) (Homo sapiens (Human), UniProt Q06187); test: Btk enzyme activity assay, LANCE TR-FRET; assay type: biochemical; settings: 50 pM hBTK, 2 μM biotin-A5-peptide, 25 μM ATP; 60 minute compound & enzyme incubation; read-out: BTK binding IC50
Sequence of BTK enzyme (recombinant full-length BTK, hBTK) (Q06187 whole entry): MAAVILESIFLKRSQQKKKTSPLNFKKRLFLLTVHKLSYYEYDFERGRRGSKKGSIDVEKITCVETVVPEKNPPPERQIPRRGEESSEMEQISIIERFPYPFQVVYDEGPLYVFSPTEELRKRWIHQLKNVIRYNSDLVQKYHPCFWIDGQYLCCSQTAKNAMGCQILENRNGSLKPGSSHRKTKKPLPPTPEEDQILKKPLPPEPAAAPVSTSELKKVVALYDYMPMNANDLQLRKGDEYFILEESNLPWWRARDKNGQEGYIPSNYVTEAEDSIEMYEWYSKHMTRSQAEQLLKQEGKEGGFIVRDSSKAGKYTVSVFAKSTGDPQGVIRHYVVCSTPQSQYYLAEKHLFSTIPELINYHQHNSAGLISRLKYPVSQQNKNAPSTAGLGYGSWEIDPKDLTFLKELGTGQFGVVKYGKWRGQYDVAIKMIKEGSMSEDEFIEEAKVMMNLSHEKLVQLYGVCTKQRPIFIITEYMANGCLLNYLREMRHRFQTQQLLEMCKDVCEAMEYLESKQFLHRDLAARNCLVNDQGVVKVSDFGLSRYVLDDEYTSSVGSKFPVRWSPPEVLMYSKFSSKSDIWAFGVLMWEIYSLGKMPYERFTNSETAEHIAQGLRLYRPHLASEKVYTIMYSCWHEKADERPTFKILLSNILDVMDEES
Method: Btk Enzyme Activity Assay Methods
BTK enzymatic activity was determined with the LANCE (Lanthanide Chelate Excite) TR-FRET (Time-resolved fluorescence resonance energy transfer) assay. […] After 60 minutes incubation with detection reagents, reaction plates were read on a PerkinElmer EnVision plate reader using standard TR-FRET protocol.

SMILES | pIC50 (HeLa cells) | pIC50 [1]
Nc1nccn2c([C@H]3CC[C@@H](C(=O)N4CCC[C@@H]4C(=O)O)C3)nc(-c3ccc(C(=O)Nc4cc(C(F)(F)F)ccn4)cc3)c12 [Example 18, 1-({(1R,3S)-3-[8-amino-1-(4-{[4-(trifluoromethyl)pyridin-2-yl]carbamoyl}phenyl)imidazo[1,5-a]pyrazin-3-yl]cyclopentyl}carbonyl)-D-proline] | 5.00 | 8.59
CC1(C)[C@@H](C(=O)O)CC[C@@]1(C)c1nc(-c2ccc(C(=O)Nc3cc(C(F)(F)F)ccn3)cc2)c2c(N)nccn12 [Example 142, (1S,3R)-3-[8-amino-1-(4-{[4-(trifluoromethyl)pyridin-2-yl]carbamoyl}phenyl)imidazo[1,5-a]pyrazin-3-yl]-2,2,3-trimethylcyclopentane carboxylic acid] | 5.36 | 8.92
CCOc1cc(C(=O)Nc2cc(C(F)(F)F)ccn2)ccc1-c1nc(C23CCC(C(=O)O)(CC2)C3)n2ccnc(N)c12 [Example 103, 4-[8-amino-1-(2-ethoxy-4-{[4-(trifluoromethyl)pyridin-2-yl]carbamoyl}phenyl)imidazo[1,5-a]pyrazin-3-yl]bicyclo[2.2.1] heptane-1-carboxylic acid] | 5.73 | 9.28
C[C@H]1CO[C@@H](c2nc(-c3ccc(C(=O)Nc4cc(C(F)(F)F)ccn4)cc3F)c3c(N)ncc(Cl)n23)CN1[C@H]1CC[C@@](C)(C(=O)O)CC1 [Example 201, cis-4-{(2R,5S)-2-[8-amino-5-chloro-1-(2-fluoro-4-{[4-(trifluoromethyl)pyridin-2-yl]carbamoyl}phenyl)imidazo [1,5-a]pyrazin-3-yl]-5-methylmorpholin-4-yl}-1-methylcyclohexanecarboxylic acid] | 5.39 | 8.77
N#Cc1ccnc(NC(=O)c2ccc(-c3nc(C45C6C7C4C4C5C6C74C(=O)O)n4ccnc(N)c34)c(F)c2)c1 (stereo not shown) [Example 76, 4-(8-amino-1-(4-((4-cyanopyridin-2-yl)carbamoyl)-2-fluorophenyl)imidazo [1,5-a]pyrazin-3-yl)cubane-1-carboxylic acid] | 6.18 | 9.39
C[C@]1(C(=O)O)CC[C@H](N2CCO[C@@H](c3nc(-c4ccc(C(=O)Nc5ccccn5)cc4)c4c(N)ncc(Cl)n34)C2)CC1 [Example 204, trans-4-[(2R)-2-{8-amino-5-chloro-1-[4-(pyridin-2-ylcarbamoyl)phenyl]imidazo [1,5-a]pyrazin-3-yl}morpholin-4-yl]-1-methylcyclohexanecarboxylic acid] | 5.41 | 8.42
CCOc1cc(C(=O)Nc2cc(C(F)(F)F)ccn2)ccc1-c1nc([C@H]2CC[C@@](C(=O)O)(C(C)C)C2)n2c(Cl)cnc(N)c12 [Example 111, (1S,3S)-3-[8-amino-5-chloro-1-(2-ethoxy-4-{[4-(trifluoromethyl)pyridin-2-yl]carbamoyl}phenyl)imidazo[1,5-a]pyrazin-3-yl]-1-(1-methylethyl) cyclopentane-carboxylic acid] | 5.00 | 7.60
CCOc1cc(C(=O)Nc2cc(C(F)(F)F)ccn2)c(F)cc1-c1nc([C@@]2(C)CC[C@](C)(C(=O)O)C2)n2ccnc(N)c12 [Example 128, (1S,3S)-3-[8-amino-1-(2-ethoxy-5-fluoro-4-{[4-(trifluoromethyl)pyridin-2-yl]carbamoyl}phenyl)imidazo[1,5-a]pyrazin-3-yl]-1,3-dimethylcyclopentane carboxylic acid] | 5.03 | 8.80
C[C@]1(C(=O)O)CC[C@H](N2CCO[C@@H](c3nc(-c4ccc(C(=O)Nc5cc(C6CC6)ccn5)cc4F)c4c(N)nccn34)C2)CC1 [Example 197, trans-4-[(2R)-2-(8-amino-1-{4-[(4-cyclopropylpyridin-2-yl)carbamoyl]-2-fluorophenyl}imidazo[1,5-a]pyrazin-3-yl)morpholin-4-yl]-1-methylcyclohexanecarboxylic acid] | 5.53 | 8.92
CCOc1cc(C(=O)Nc2cc(C(F)(F)F)n(C)n2)ccc1-c1nc([C@@H]2CC[C@@](C(=O)O)(C(C)C)C2)n2ccnc(N)c12 [Example 52, (1S,3R)-3-[8-amino-1-(2-ethoxy-4-{[1-methyl-5-(trifluoromethyl)-1H-pyrazol-3-yl]carbamoyl}phenyl)imidazo[1,5-a]pyrazin-3-yl]-1-(1-methylethyl) cyclopentane-carboxylic acid] | 5.00 | 8.05
CCOc1cc(C(=O)Nc2cc(C(F)(F)F)ccn2)ccc1-c1nc([C@@H]2CC[C@](C(=O)O)(C(C)C)C2)n2c(Cl)cnc(N)c12 [Example 112, (1R,3R)-3-[8-amino-5-chloro-1-(2-ethoxy-4-{[4-(trifluoromethyl)pyridin-2-yl]carbamoyl}phenyl)imidazo[1,5-a]pyrazin-3-yl]-1-(1-methylethyl) cyclopentane-carboxylic acid] | 5.00 | 7.66
C[C@]1(C(=O)O)CCN(c2nc(-c3ccc(C(=O)Nc4cc(C(F)(F)F)ccn4)cc3)c3c(N)nccn23)C1 [Example 45, (3S)-1-[8-amino-1-(4-{[4-(trifluoromethyl)pyridin-2-yl]carbamoyl}phenyl)imidazo[1,5-a]pyrazin-3-yl]-3-methylpyrrolidine-3-carboxylic acid] | 5.00 | 8.85
CCOc1cc(C(=O)Nc2cc(C(F)(F)F)ccn2)ccc1-c1nc([C@@H]2C[C@H]3CC[C@@H](C2)[C@H]3C(=O)O)n2ccnc(N)c12 [Example 105, (3-exo,8-syn)-3-[8-amino-1-(2-ethoxy-4-{[4-(trifluoromethyl)pyridin-2-yl]carbamoyl}phenyl)imidazo[1,5-a]pyrazin-3-yl]bicyclo[3.2.1] octane-8-carboxylic acid] | 5.00 | 8.72
COc1cc(C(=O)Nc2cc(C(F)(F)F)ccn2)ccc1-c1nc([C@H]2CN(C3CC(C(=O)O)C3)[C@@H](C)CO2)n2ccnc(N)c12 (stereo partly drawn) [Example 185, 3-{(2R,5S)-2-[8-amino-1-(2-methoxy-4-{[4-(trifluoromethyl)pyridin-2-yl]carbamoyl}phenyl)imidazo [1,5-a]pyrazin-3-yl]-5-methylmorpholin-4-yl}cyclobutanecarboxylic acid] | 5.23 | 8.49
C[C@@]1(C(=O)O)CCN(c2nc(-c3ccc(C(=O)Nc4cc(C(F)(F)F)ccn4)cc3)c3c(N)nccn23)C1 [Example 44, (3R)-1-[8-amino-1-(4-{[4-(trifluoromethyl)pyridin-2-yl]carbamoyl}phenyl)imidazo[1,5-a]pyrazin-3-yl]-3-methylpyrrolidine-3-carboxylic acid] | 5.06 | 8.74
C[C@@]1(C(=O)O)CCCN(c2nc(-c3ccc(C(=O)Nc4cc(C(F)(F)F)ccn4)cc3)c3c(N)nccn23)C1 [Example 41, (3R)-1-[8-amino-1-(4-{[4-(trifluoromethyl)pyridin-2-yl]carbamoyl}phenyl)imidazo[1,5-a]pyrazin-3-yl]-3-methylpiperidine-3-carboxylic acid] | 5.37 | 8.12
C[C@H]1CO[C@@H](c2nc(-c3ccc(C(=O)Nc4cc(C(F)F)ccn4)cc3)c3c(N)nccn23)CN1[C@H]1CC[C@](C)(C(=O)O)CC1 [Example 206, trans-4-{(2R,5S)-2-[8-amino-1-(4-{[4-(difluoromethyl)pyridin-2-yl]carbamoyl}phenyl)imidazo [1,5-a]pyrazin-3-yl]-5-methylmorpholin-4-yl}-1-methylcyclohexanecarboxylic acid] | 5.00 | 9.00
COc1cc(C(=O)Nc2cc(C(F)(F)F)ccn2)ccc1-c1nc([C@H]2CCC[C@@H](C(=O)O)C2)n2ccnc(N)c12 [Example 5, (1R,3S)-3-[8-amino-1-(2-methoxy-4-{[4-(trifluoromethyl)pyridin-2-yl]carbamoyl}phenyl)imidazo [1,5-a]pyrazin-3-yl]cyclohexane-carboxylic acid] |  | 7.39
CCc1ccnc(NC(=O)c2ccc(-c3nc([C@@H]4CCC[C@H](C(=O)O)C4)n4ccnc(N)c34)cc2)c1 [Example 7, (1S,3R)-3-(8-amino-1-{4-[(4-ethylpyridin-2-yl)carbamoyl]phenyl}imidazo [1,5-a]pyrazin-3-yl)cyclohexane-carboxylic acid] |  | 8.85
C[C@]1(C(=O)O)CCC[C@@H](c2nc(-c3ccc(C(=O)Nc4cc(C5CC5)ccn4)cc3F)c3c(N)nccn23)C1 [Example 156, (1S,3R)-3-(8-amino-1-{4-[(4-cyclopropylpyridin-2-yl)carbamoyl]-2-fluorophenyl}imidazo [1,5-a]pyrazin-3-yl)-1-methylcyclohexane-carboxylic acid] |  | 8.77
